System: K. brevis cells
Experiment: Large-scale mesocosm experiment, efficacy of algicide treatment (red tide cell counts)
Type: cell-based, Karenia brevis
Settings: 15 or 25 ppm particles; 1400 L tanks; 1 million cells/L; first (15 minute) sampling period
Protocol: A large-scale mesocosm experiment was conducted to evaluate the efficacy of algicide treatment and marine organism toxicity. In each of four 1400 L exposure tanks containing K. brevis cells at a red tide concentration of 1 million cells/L, potassium ricinoleate particles were added to the tanks at levels of 15 or 25 ppm. At 15 minutes after addition of the algicidal agent to each tank, water samples were collected for red tide cell counts.
Marine organism toxicity was evaluated by adding grass shrimp or Gulf killifish to the tanks along with the red tide cells and 15 or 25 ppm of the algicidal compounds. The red tide cells were quickly killed as before. After 18 and 24 hours, all shrimp remained alive. After 18 hours all fish were alive, but significant fish mortality was observed after 24 hours. The fish mortality was determined to be due to insufficient tank water circulation and oxygenation, and repeating the fish experiment with adequate circulation and oxygenation should eliminate or at least reduce the observed fish mortality.

SMILES	red tide cell mortality (no live cells under microscopic examination)
CCCCCC[C@@H](O)C/C=C\CCCCCCCC(=O)[O-].[K+] [potassium ricinoleate]	complete red tide cell mortality

System: K. brevis
Experiment: K. brevis mortality test of individual pure compounds against red tide cultures
Type: cell-based, Karenia brevis
Settings: 100% mortality of K. brevis within 2 hours after administration to a water sample containing K. brevis
Protocol: Shown below in Table 1 are one saturated fatty acid (viz., palmitic acid) and nine exemplary algicidal unsaturated fatty acids, along with their omega nomenclature (viz., number of carbon atoms, number of double bonds, number of carbon atoms from the carboxylic acid end to the first carbon in a double bond) and the required dosage in ppm to obtain 100% mortality of K. brevis, within 2 hours after administration to a water sample containing K. brevis, according to embodiments of the present disclosure.
The relative toxic effects shown in Table 1 were determined by obtaining individual pure compounds and testing them against red tide cultures of K. brevis. The compounds in Table 1 may also be tested as salts or soaps, and in water or non-methanolic solvents such as ethanol, acetone, acetic acid, dimethyl sulfoxide (DMSO) or other polar or non-polar solvent. […] In embodiments, the observed mortality may for example be at least 25%, at least 50%, at least 75%, at least 90% or as much as 100% in a desired time frame (e.g., within 2 hours, within 4 hours, within 8 hours, within 24 hours, or within 2, 3 or 4 days following application of the algicidal compound. In some embodiments, 100% death of red tide organisms may be achieved within 30 minutes of application within a target area. Additionally, extracts of macro algae common in environments suitable for K. brevis were tested to see how the mixture of fatty acids in those extracts would perform as algicidal agents. Use of a single compound instead of a mixture may be preferable under many common circumstances. However, Ulva latuca and Gracilaria tikvahiae contain mixtures of fatty acids and may be used as salts or soaps or in non-methanolic solutions to control K. brevis red tide blooms, according to embodiments of the present disclosure.
To measure K. brevis mortality in a liquid, the concentration of K. brevis is measured before any algaecides are added. An algaecide is then added, and the concentration of live K. brevis measured at intervals (e.g. 1, 2, 5, 10, 20, and 30 minutes). This may also be performed in serial stages. For example, if the mortality rate of K. brevis at 30 minutes is 100%, the experiment may be repeated and the concentration of K. brevis measured at a lesser time point, such as after 20 minutes. If the mortality rate of K. brevis is still 100%, the experiment may be repeated again with the concentration measured at a lesser time point, such as after 10 minutes. The experiment may be repeated as many times as necessary to measure how long it takes for an algaecide to reach 100% mortality rate of K. brevis. Any suitable time periods may be used to measure the concentration of K. brevis.
A variety of techniques may be used to measure K. brevis concentrations. In some embodiments, staining techniques are used. Staining may be performed with Lugol's Iodine Solution stain, which will become fixed to and stain the K. brevis so that it may be visualized. Other stains may be used, such as Invitrogen™ SYTOX™ Green from Thermo Fisher Scientific, which will penetrate compromised membranes (a feature characteristic of dead cells) of K. brevis and stain them. Fluorescein Diacetate may also be used, where live cells convert the fluorescein diacetate to […] which fluoresces and may be measured. Additionally, 4′,6-diamidino-2-phenylindole (DAPI) may also be used to stain nucleic acids that are inside or outside of cells. In addition to staining methods, the concentration of K. brevis may also be measured by other imaging techniques such as manual count, microscopy, fluorometry, flow cytometry, or other possible staining or counting techniques. FIG. 3 depicts one method of measuring K. brevis concentration using Invitrogen™ SYTOX™ Green.

SMILES	Dosage (PPM) for 100% Mortality in under 2 hrs [PPM]
CC/C=C\C/C=C\C/C=C\C/C=C\C/C=C\CCCC(=O)O [Eicosapentaenoic Acid]	<2
CCCCCC/C=C\CCCCCCCC(=O)O [Palmitoleic Acid]	3
CCCCC/C=C\C/C=C\C/C=C\C/C=C\CCCC(=O)O [Arachidonic Acid]	1.5
CC/C=C\C/C=C\C/C=C\C/C=C\C/C=C\C/C=C\CCC(=O)O [Docosahexanoic Acid]	<2.5
CC/C=C\C/C=C\C/C=C\C/C=C\CCCCC(=O)O [Stearidonic Acid]	>2
CC/C=C\C/C=C\C/C=C\C/C=C\CCC(=O)O [Hexadecatetraenoic Acid]	>1
CCCCCC/C=C\CCCCCCCCCC(=O)O [Vacennic Acid]	>6
CCCCCCCCCCCCCCCC(=O)O [Palmitic Acid, reference compound]	>10
CCCCC/C=C\C/C=C\C/C=C\C/C=C\CCCCCC(=O)O [Adrenic Acid]	<50
CC/C=C\C/C=C\C/C=C\CCCCCCCC(=O)O [Alpha-linolenic Acid]	3

From patent US20260130369A1, “MARINE ALGICIDES” (Mote Marine Laboratory, Inc., priority 2022, published 2026)
